A short description of data set [1]: in vitro. Conditions: rat, liver microsomes. (In general: Liver microsomes are vesicles of endoplasmic reticulum, rich in cytochrome P450 enzymes.)
Data set [2] is described as follows: in vivo. Conditions: rat, brain/plasma, po, 1600 mg/kg.

Among the data in ChEMBL document CHEMBL2390872, “Synthesis and biological evaluation of Esaprazole analogues showing σ1 binding and neuroprotective properties in vitro” (Bioorg Med Chem, 2013) are half-life and Kp values, retold here.

Some results are limits rather than exact numbers.

For orientation: half-life means the time in which the quantity being followed falls by half. In turn, `O=C(CCN1C[C@@H]2C[C@H]1CN2)NC1CCCCC1` returned a half-life in data set [1] of 45 min. Regarding `O=C(CN1CCN2CCC[C@@H]2C1)NC1CCCCC1`, the half-life in data set [1] worked out at 8.2 min. As to `O=C(CN1CCN2CCC[C@H]2C1)NC1CCCCC1`, the half-life in data set [1] amounted to 4.2 min.

The molecule `O=C(CCN1CCN(C(=O)C2CC2)CC1)NC1CCCCC1` came in with a half-life in data set [1] of over 60 min. As to `CC(C)(C)CCNC(=O)CN1CCN(C(=O)C2CCCCC2)CC1`, the half-life in data set [1] came out at 21 min. The molecule `CCN1CCN(CC(=O)N(C)C2CCCC2)CC1C` (racemic) had a half-life in data set [1] of 21 min. As a reminder, the Kp is the ratio of the level in a tissue or fluid to that in plasma or blood. `O=C(CN1CCNCC1)NC1CCCCC1` [ESAPRAZOLE] had a partition ratio (Kp) at 2 h in data set [2] of 0.25. The molecule further gave a half-life in data set [1] of over 60 min.
